# The kinase profiling compilation of Christmann-Franck et al. (2016)
# What was measured:
# Assay in all cases: KINOMEscan competition binding
# Settings in all cases: compound 10.0 µM
# [1] = biological target: RPS6KA2 KD1 (human) (UniProt Q15349)
# [2] = biological target: MAP4K3 (human) (UniProt Q8IVH8)
# [3] = biological target: CLK4 (human) (UniProt Q9HAZ1)
# [4] = biological target: RPS6KA5 KD1 (human) (UniProt O75582)
# [5] = biological target: LCK (human) (UniProt P06239)
# [6] = biological target: MAPK4 (human) (UniProt P31152)
# [7] = biological target: SLK (human) (UniProt Q9H2G2)
# [8] = biological target: AAK1 (human) (UniProt Q2M2I8)
# [9] = biological target: BRSK2 (human) (UniProt Q8IWQ3)
# [10] = biological target: MAPKAPK5 (human) (UniProt Q8IW41)
# [11] = biological target: TYK2 JH1 catalytic (human) (UniProt P29597)
# [12] = biological target: KIT (human) (UniProt P10721)
# [13] = biological target: RPS6KA1 KD1 (human) (UniProt Q15418)
# [14] = biological target: NEK6 (human) (UniProt Q9HC98)
# [15] = biological target: RIPK2 (human) (UniProt O43353)
# [16] = biological target: CDK2 (human) (UniProt P24941)
# [17] = biological target: MST4 (human) (UniProt Q9P289)
# [18] = biological target: EPHB4 (human) (UniProt P54760)
# [19] = biological target: MAP2K3 (human) (UniProt P46734)
# [20] = biological target: PRKCQ (human) (UniProt Q04759)
# [21] = biological target: MAPK9 (human) (UniProt P45984)
# [22] = biological target: ADCK3 (human) (UniProt Q8NI60)
# [23] = biological target: EIF2AK2 (human) (UniProt P19525)
# [24] = system: KIT (human), P10721 [V559D]
# [25] = biological target: SIK2 (human) (UniProt Q9H0K1)
# [26] = biological target: EPHA5 (human) (UniProt P54756)
# [27] = biological target: NEK5 (human) (UniProt Q6P3R8)
# [28] = biological target: NTRK2 (human) (UniProt Q16620)
# [29] = biological target: RIOK1 (human) (UniProt Q9BRS2)
# [30] = biological target: TNNI3K (human) (UniProt Q59H18)
# [31] = biological target: HCK (human) (UniProt P08631)
# [32] = biological target: PRKACB (human) (UniProt P22694)
# [33] = biological target: CDKL2 (human) (UniProt Q92772)
# [34] = biological target: CSK (human) (UniProt P41240)
# [35] = biological target: RPS6KA6 KD2 (human) (UniProt Q9UK32)
# [36] = biological target: PAK7 (human) (UniProt Q9P286)
# [37] = biological target: MAPK10 (human) (UniProt P53779)
# [38] = biological target: PIP4K2B (human) (UniProt P78356)
# [39] = biological target: PKMYT1 (human) (UniProt Q99640)
# [40] = biological target: STK33 (human) (UniProt Q9BYT3)
# [41] = system: RET (human), P07949 [V804L]
# [42] = biological target: SIK1 (human) (UniProt P57059)
# Sequence of PRKCQ (human) (Q04759 whole entry, looked up): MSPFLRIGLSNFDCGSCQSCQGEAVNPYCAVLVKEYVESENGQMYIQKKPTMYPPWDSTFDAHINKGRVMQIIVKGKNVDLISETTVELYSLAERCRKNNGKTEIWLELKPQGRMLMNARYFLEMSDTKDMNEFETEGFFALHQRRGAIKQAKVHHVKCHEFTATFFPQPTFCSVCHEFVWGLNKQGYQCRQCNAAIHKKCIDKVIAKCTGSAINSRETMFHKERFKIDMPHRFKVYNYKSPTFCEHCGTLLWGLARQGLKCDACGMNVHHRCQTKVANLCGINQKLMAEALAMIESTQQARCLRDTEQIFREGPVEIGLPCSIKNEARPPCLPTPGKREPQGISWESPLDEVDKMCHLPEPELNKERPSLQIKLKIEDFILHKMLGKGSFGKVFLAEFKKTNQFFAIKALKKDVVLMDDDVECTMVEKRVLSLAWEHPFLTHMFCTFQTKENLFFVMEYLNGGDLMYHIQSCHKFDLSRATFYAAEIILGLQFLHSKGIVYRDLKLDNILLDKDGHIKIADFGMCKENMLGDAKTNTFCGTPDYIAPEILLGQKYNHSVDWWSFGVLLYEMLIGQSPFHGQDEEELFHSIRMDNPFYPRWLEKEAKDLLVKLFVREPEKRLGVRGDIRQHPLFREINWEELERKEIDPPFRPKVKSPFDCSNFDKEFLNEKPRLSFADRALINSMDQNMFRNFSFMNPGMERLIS
# Sequence of TNNI3K (human) (Q59H18 whole entry, looked up): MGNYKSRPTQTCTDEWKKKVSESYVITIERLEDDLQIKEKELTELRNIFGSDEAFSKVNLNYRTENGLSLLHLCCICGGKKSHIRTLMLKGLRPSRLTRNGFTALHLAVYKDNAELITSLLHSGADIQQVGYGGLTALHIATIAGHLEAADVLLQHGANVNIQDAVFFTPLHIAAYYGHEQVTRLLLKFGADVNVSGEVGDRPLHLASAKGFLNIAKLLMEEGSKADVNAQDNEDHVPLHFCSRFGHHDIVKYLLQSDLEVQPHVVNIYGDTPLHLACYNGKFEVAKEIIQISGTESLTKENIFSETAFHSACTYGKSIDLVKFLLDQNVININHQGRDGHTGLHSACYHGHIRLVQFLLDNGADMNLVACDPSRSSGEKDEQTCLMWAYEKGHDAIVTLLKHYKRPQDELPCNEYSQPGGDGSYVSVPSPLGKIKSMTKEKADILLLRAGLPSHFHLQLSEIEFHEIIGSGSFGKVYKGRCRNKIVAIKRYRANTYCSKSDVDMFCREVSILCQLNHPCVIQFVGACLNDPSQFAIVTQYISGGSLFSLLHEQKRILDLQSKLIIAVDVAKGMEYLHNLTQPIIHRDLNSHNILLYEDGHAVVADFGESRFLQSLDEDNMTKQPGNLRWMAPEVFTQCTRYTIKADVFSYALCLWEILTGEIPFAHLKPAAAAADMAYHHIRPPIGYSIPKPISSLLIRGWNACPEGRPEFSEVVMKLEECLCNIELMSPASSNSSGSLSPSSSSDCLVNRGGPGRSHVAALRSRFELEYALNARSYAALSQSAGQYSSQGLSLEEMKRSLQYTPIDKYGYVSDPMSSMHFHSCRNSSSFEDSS
# Sequence of MAP4K3 (human) (Q8IVH8 whole entry, looked up): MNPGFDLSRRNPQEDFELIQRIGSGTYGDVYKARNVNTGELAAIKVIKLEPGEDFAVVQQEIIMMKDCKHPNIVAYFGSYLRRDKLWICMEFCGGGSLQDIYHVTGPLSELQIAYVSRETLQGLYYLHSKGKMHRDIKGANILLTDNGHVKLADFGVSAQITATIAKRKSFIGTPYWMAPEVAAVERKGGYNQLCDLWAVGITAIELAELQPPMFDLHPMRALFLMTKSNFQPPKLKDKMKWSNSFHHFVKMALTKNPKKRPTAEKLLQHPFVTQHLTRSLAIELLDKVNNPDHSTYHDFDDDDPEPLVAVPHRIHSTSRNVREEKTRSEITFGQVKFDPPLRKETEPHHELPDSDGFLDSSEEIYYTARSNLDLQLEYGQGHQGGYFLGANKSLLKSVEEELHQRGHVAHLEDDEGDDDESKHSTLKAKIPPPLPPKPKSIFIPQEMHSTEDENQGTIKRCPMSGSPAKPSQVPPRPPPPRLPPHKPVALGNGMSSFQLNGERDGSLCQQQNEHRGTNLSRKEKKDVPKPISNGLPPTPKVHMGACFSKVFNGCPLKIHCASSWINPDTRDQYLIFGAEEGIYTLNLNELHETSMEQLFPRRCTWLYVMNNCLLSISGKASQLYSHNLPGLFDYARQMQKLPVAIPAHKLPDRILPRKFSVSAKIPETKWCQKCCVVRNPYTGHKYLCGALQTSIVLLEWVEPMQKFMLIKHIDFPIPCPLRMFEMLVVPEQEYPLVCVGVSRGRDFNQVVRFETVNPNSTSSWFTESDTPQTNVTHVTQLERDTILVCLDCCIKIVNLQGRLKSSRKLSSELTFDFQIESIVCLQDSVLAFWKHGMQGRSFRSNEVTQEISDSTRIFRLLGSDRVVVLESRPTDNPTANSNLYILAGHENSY
# Sequence of MAPK9 (human) (P45984 whole entry, looked up): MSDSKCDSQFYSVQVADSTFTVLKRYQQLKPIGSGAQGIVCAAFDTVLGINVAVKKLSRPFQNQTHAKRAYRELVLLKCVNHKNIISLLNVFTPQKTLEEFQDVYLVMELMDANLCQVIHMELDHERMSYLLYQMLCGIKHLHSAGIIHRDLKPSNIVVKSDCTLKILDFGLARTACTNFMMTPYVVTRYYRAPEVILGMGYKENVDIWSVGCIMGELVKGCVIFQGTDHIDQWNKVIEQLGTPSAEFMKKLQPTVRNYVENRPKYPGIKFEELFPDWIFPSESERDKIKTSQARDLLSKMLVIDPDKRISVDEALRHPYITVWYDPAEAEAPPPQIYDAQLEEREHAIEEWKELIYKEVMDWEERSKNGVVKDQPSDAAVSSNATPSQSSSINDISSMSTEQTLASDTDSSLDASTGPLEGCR
# Sequence of MAPKAPK5 (human) (Q8IW41 whole entry, looked up): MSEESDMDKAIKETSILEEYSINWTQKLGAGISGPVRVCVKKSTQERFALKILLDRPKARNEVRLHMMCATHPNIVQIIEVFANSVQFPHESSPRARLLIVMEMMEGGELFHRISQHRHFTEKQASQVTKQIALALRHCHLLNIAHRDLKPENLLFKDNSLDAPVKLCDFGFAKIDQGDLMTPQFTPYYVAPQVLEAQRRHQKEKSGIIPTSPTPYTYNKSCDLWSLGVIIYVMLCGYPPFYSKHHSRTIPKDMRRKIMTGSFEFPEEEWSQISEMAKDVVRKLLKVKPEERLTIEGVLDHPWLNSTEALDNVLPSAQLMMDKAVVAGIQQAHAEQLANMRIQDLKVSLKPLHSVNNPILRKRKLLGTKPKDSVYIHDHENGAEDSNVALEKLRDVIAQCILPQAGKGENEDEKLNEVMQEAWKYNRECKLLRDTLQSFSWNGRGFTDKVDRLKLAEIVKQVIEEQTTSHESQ
# Sequence of LCK (human) (P06239 whole entry, looked up): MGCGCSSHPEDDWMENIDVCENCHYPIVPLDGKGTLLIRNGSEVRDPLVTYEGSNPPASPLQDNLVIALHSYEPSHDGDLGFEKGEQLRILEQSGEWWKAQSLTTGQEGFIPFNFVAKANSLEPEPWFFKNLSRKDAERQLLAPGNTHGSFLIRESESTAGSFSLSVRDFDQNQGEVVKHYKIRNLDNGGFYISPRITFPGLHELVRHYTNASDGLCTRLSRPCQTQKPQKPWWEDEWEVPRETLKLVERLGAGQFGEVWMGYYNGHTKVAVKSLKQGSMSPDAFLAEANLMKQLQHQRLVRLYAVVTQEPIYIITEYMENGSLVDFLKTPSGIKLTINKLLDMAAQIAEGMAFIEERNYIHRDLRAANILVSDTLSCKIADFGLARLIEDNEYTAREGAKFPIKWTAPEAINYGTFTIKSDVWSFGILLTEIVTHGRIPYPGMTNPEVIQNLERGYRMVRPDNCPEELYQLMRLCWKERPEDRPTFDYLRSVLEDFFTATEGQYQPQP
# Sequence of ADCK3 (human) (Q8NI60 whole entry, looked up): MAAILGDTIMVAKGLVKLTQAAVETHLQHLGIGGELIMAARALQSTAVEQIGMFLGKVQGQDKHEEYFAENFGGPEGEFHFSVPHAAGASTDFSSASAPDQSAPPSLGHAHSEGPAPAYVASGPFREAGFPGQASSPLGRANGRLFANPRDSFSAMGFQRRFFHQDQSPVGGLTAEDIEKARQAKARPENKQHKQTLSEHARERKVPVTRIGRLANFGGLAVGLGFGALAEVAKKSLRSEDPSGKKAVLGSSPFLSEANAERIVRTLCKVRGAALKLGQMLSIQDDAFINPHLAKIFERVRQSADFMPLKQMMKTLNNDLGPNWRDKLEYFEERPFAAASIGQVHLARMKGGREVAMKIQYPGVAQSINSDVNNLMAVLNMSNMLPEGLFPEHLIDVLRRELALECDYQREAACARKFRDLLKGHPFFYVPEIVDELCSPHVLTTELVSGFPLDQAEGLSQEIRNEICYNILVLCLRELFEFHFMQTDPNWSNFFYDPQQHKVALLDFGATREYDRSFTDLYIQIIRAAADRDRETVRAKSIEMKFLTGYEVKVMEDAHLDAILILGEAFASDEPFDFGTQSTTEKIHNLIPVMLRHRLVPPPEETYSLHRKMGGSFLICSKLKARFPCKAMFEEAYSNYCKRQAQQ
# Sequence of PIP4K2B (human) (P78356 whole entry, looked up): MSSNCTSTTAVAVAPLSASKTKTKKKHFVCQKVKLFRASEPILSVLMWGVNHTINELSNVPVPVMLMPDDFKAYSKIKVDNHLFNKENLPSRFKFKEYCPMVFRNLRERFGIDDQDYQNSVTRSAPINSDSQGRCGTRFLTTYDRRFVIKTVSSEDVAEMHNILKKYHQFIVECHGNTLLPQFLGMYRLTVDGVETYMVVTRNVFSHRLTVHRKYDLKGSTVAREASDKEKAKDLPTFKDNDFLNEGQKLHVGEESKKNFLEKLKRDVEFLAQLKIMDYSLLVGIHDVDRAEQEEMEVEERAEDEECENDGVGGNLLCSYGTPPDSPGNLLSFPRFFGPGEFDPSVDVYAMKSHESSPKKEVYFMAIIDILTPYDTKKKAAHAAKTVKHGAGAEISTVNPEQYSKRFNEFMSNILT
smiles,measurement,setting,value
COc1cc(N2CCC(N3CCN(C)CC3)CC2)ccc1Nc1ncc(Cl)c(Nc2ccccc2S(=O)(=O)C(C)C)n1,"kinase still bound, per cent of control",[1],0.05%
same,"kinase still bound, per cent of control",[2],2.5%
same,"kinase still bound, per cent of control",[3],1.2%
same,"kinase still bound, per cent of control",[4],40%
same,"kinase still bound, per cent of control",[5],0.1%
same,"kinase still bound, per cent of control",[6],40%
same,"kinase still bound, per cent of control",[7],0.1%
same,"kinase still bound, per cent of control",[8],2.8%
same,"kinase still bound, per cent of control",[9],0.5%
same,"kinase still bound, per cent of control",[10],40%
same,"kinase still bound, per cent of control",[11],0.45%
same,"kinase still bound, per cent of control",[12],0.1%
same,"kinase still bound, per cent of control",[13],0.25%
same,"kinase still bound, per cent of control",[14],1.8%
same,"kinase still bound, per cent of control",[15],40%
same,"kinase still bound, per cent of control",[16],24%
same,"kinase still bound, per cent of control",[17],27%
same,"kinase still bound, per cent of control",[18],17%
same,"kinase still bound, per cent of control",[19],0.8%
same,"kinase still bound, per cent of control",[20],13%
same,"kinase still bound, per cent of control",[21],12%
same,"kinase still bound, per cent of control",[22],9.2%
same,"kinase still bound, per cent of control",[23],40%
same,"kinase still bound, per cent of control",[24],0.1%
same,"kinase still bound, per cent of control",[25],7.5%
same,"kinase still bound, per cent of control",[26],21%
same,"kinase still bound, per cent of control",[27],40%
same,"kinase still bound, per cent of control",[28],8.4%
same,"kinase still bound, per cent of control",[29],2.6%
same,"kinase still bound, per cent of control",[30],15%
same,"kinase still bound, per cent of control",[31],0.35%
same,"kinase still bound, per cent of control",[32],9.9%
same,"kinase still bound, per cent of control",[33],40%
same,"kinase still bound, per cent of control",[34],2%
same,"kinase still bound, per cent of control",[35],1.8%
same,"kinase still bound, per cent of control",[36],2.7%
same,"kinase still bound, per cent of control",[37],2.6%
same,"kinase still bound, per cent of control",[38],11%
same,"kinase still bound, per cent of control",[39],40%
same,"kinase still bound, per cent of control",[40],0.1%
CCN1CCN(Cc2ccc(NC(=O)c3ccc(C)c(Oc4ccnc5[nH]ccc45)c3)cc2C(F)(F)F)CC1,"kinase still bound, per cent of control",[2],18%
same,"kinase still bound, per cent of control",[4],4.7%
same,"kinase still bound, per cent of control",[5],0.8%
same,"kinase still bound, per cent of control",[7],2%
same,"kinase still bound, per cent of control",[12],0%
same,"kinase still bound, per cent of control",[16],11%
same,"kinase still bound, per cent of control",[21],0%
same,"kinase still bound, per cent of control",[24],0%
same,"kinase still bound, per cent of control",[30],4.8%
same,"kinase still bound, per cent of control",[41],0.8%
same,"kinase still bound, per cent of control",[31],0.4%
same,"kinase still bound, per cent of control",[32],14%
same,"kinase still bound, per cent of control",[33],0.9%
same,"kinase still bound, per cent of control",[34],0.45%
same,"kinase still bound, per cent of control",[42],5.3%
same,"kinase still bound, per cent of control",[37],12%
CCN1CCN(Cc2ccc(NC(=O)c3ccc(C)c(/C=C/c4cnc(Nc5cc(N6CCNCC6)nc(C)n5)cn4)c3)cc2C(F)(F)F)CC1,"kinase still bound, per cent of control",[1],69%
same,"kinase still bound, per cent of control",[2],0.9%
same,"kinase still bound, per cent of control",[3],31%
same,"kinase still bound, per cent of control",[4],100%
same,"kinase still bound, per cent of control",[5],0.45%
same,"kinase still bound, per cent of control",[6],100%
same,"kinase still bound, per cent of control",[7],2.4%
same,"kinase still bound, per cent of control",[8],84%
same,"kinase still bound, per cent of control",[9],100%
same,"kinase still bound, per cent of control",[10],80%
same,"kinase still bound, per cent of control",[11],29%
same,"kinase still bound, per cent of control",[12],0.15%
same,"kinase still bound, per cent of control",[13],100%
same,"kinase still bound, per cent of control",[14],100%
same,"kinase still bound, per cent of control",[15],5.4%
same,"kinase still bound, per cent of control",[16],100%
same,"kinase still bound, per cent of control",[17],4.6%
same,"kinase still bound, per cent of control",[18],23%
same,"kinase still bound, per cent of control",[19],100%
same,"kinase still bound, per cent of control",[20],81%
same,"kinase still bound, per cent of control",[21],0.7%
same,"kinase still bound, per cent of control",[22],100%
same,"kinase still bound, per cent of control",[23],80%
same,"kinase still bound, per cent of control",[24],0.05%
same,"kinase still bound, per cent of control",[25],61%
same,"kinase still bound, per cent of control",[26],20%
same,"kinase still bound, per cent of control",[27],49%
same,"kinase still bound, per cent of control",[28],1%
same,"kinase still bound, per cent of control",[29],100%
same,"kinase still bound, per cent of control",[30],12%
same,"kinase still bound, per cent of control",[41],1.2%
same,"kinase still bound, per cent of control",[31],0.4%
same,"kinase still bound, per cent of control",[32],90%
same,"kinase still bound, per cent of control",[33],0.15%
same,"kinase still bound, per cent of control",[34],0.55%
same,"kinase still bound, per cent of control",[35],11%
same,"kinase still bound, per cent of control",[36],100%
same,"kinase still bound, per cent of control",[42],3.6%
same,"kinase still bound, per cent of control",[37],54%
same,"kinase still bound, per cent of control",[38],83%
same,"kinase still bound, per cent of control",[39],100%
same,"kinase still bound, per cent of control",[40],90%
CCOc1cc(N2CCC(N3CCCCC3)CC2)ccc1Nc1nc(Nc2ccccc2S(=O)(=O)C(C)C)c2cn[nH]c2n1,"kinase still bound, per cent of control",[1],77%
same,"kinase still bound, per cent of control",[2],10%
same,"kinase still bound, per cent of control",[3],5.2%
same,"kinase still bound, per cent of control",[4],100%
same,"kinase still bound, per cent of control",[5],84%
same,"kinase still bound, per cent of control",[6],100%
same,"kinase still bound, per cent of control",[7],14%
same,"kinase still bound, per cent of control",[8],69%
same,"kinase still bound, per cent of control",[9],94%
same,"kinase still bound, per cent of control",[10],100%
same,"kinase still bound, per cent of control",[11],87%
same,"kinase still bound, per cent of control",[12],87%
same,"kinase still bound, per cent of control",[13],1.8%
same,"kinase still bound, per cent of control",[14],100%
same,"kinase still bound, per cent of control",[15],100%
same,"kinase still bound, per cent of control",[16],100%
same,"kinase still bound, per cent of control",[17],100%
same,"kinase still bound, per cent of control",[18],99%
same,"kinase still bound, per cent of control",[19],7%
same,"kinase still bound, per cent of control",[20],100%
same,"kinase still bound, per cent of control",[21],22%
same,"kinase still bound, per cent of control",[22],84%
same,"kinase still bound, per cent of control",[23],100%
same,"kinase still bound, per cent of control",[24],86%
same,"kinase still bound, per cent of control",[25],85%
same,"kinase still bound, per cent of control",[26],100%
same,"kinase still bound, per cent of control",[27],100%
same,"kinase still bound, per cent of control",[28],59%
same,"kinase still bound, per cent of control",[29],100%
same,"kinase still bound, per cent of control",[30],100%
same,"kinase still bound, per cent of control",[41],82%
same,"kinase still bound, per cent of control",[31],100%
same,"kinase still bound, per cent of control",[32],100%
same,"kinase still bound, per cent of control",[33],91%
same,"kinase still bound, per cent of control",[34],100%
same,"kinase still bound, per cent of control",[35],2.1%
same,"kinase still bound, per cent of control",[36],80%
same,"kinase still bound, per cent of control",[42],100%
same,"kinase still bound, per cent of control",[37],7.2%
same,"kinase still bound, per cent of control",[38],100%
same,"kinase still bound, per cent of control",[39],69%
same,"kinase still bound, per cent of control",[40],15%
